Assay results published in patent US11884661B2, “3-substituted propionic acids as αV integrin inhibitors” (BRISTOL-MYERS SQUIBB COMPANY, priority 2016, dated 2024).

Biological target: T1, human αVβ6 (Homo sapiens, UniProt P06756+P18564)
T1 construct: purchased R & D systems 3817-AV
Experiment: human αVβ6 HTRF binding assay
Conditions: recombinant human αVβ6 integrin, FITC-conjugated fibronectin
Method: All binding assays used the HTRF (homogeneous time resolved fluorescence) technology from Cisbio International, therefore all assays are described as HTRF binding assays. The assay results for the Examples are listed above together with the characterization data. The HTRF binding assays are established for the following integrins: human αVβ6, human αVβ1, human αVβ3, human αVβ5, and human αVβ8. All assays used the following assay buffer: 20 mM Tris, pH 7.4, 1 mM MgCl2, 1 mM MnCl2, 0.01% Tween 20, and 0.01% BSA. Alternatively, a SPA-based assay was used for evaluation of receptor binding.
The following describes the components and a representative procedure for the human αVβ6 HTRF binding assay: Recombinant human αVβ6 Integrin (R & D systems, 3817-AV) was biotinylated. Biotinylated human αVβ6 Integrin was added to assay vessel at a final concentration of 1.25 nM. FITC-conjugated fibronectin (Cytoskeleton, FNR02) was then added at the final concentration of 5 nM. The mixture was centrifuged at 600 rpm for three minutes using Thermo Fisher Heraeus Multifuge X3 centrifuge and then incubated at RT for an hour. Streptavidin Terbium (Cisbio international 610STLB) was then added at the final concentration of 0.625 nM. The resulting mixture was centrifuged at 600 rpm for three minutes using Thermo Fisher Heraeus Multifuge X3 centrifuge and then incubated at room temperature overnight in dark before reading HTRF signals.

T1 sequence (P06756 31-992 limits assumed): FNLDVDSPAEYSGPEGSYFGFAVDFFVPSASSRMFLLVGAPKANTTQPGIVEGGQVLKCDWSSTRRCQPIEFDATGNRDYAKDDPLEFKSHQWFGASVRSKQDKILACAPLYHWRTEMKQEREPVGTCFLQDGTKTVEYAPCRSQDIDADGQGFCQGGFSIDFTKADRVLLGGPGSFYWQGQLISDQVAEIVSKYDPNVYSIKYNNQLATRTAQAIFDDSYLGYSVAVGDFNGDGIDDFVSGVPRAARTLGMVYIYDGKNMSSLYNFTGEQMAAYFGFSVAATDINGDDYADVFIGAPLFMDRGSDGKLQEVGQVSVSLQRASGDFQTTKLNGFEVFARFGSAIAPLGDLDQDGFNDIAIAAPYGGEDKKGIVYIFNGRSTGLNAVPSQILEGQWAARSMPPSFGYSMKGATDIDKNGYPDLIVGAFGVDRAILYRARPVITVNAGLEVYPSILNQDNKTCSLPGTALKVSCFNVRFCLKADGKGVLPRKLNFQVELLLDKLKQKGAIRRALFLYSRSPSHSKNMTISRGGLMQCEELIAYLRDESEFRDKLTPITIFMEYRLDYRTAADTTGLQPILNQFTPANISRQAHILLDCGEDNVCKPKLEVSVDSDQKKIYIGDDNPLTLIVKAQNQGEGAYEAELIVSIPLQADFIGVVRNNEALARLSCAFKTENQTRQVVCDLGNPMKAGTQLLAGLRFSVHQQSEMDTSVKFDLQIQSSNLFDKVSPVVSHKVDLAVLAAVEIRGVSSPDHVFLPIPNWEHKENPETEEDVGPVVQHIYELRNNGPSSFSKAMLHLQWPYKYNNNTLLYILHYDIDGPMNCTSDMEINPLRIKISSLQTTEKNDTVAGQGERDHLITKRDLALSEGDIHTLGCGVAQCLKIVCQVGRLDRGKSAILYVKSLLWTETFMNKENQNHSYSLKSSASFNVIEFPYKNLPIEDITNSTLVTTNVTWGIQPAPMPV
T1 sequence (P18564 22-707 limits assumed): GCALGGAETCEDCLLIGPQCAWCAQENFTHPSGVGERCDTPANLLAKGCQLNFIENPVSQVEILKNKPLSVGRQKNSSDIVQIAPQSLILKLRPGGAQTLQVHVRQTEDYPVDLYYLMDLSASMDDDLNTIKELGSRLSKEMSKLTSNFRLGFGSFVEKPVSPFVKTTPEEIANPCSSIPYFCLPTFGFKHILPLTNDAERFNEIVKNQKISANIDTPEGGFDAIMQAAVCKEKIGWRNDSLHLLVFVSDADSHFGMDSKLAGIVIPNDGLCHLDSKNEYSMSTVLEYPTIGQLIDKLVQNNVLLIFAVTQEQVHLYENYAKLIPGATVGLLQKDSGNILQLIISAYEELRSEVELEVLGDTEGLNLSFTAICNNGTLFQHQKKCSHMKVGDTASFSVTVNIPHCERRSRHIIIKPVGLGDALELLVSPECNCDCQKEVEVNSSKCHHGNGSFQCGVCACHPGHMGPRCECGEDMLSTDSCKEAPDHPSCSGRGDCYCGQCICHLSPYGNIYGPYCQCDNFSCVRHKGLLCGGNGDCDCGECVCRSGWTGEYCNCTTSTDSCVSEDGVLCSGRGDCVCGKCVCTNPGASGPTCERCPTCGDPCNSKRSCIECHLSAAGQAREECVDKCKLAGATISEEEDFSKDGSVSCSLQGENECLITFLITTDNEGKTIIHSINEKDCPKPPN

SMILES	IC50 [nM]
COc1ncc([C@H](CC(=O)O)n2ccc(CCC[C@H]3CCc4cccnc4N3)n2)cn1 [Example 89, (S)-3-(2-methoxypyrimidin-5-yl)-3-(3-(3-((S)-1,2,3,4-tetrahydro-1,8-naphthyridin-2-yl)propyl)-1H-pyrazol-1-yl)propanoic acid]	100
Cc1ncc(C(CC(=O)O)n2ccc(CCCc3ccc4c(n3)NCCCC4)n2)cn1 (single isomer, unassigned) [Example 97, 3-(2-methylpyrimidin-5-yl)-3-(3-(3-(6,7,8,9-tetrahydro-5H-pyrido[2,3-b]azepin-2-yl)propyl)-1H-pyrazol-1-yl)propanoic acid]	45
COCCOc1cncc(C(CC(=O)O)n2ccc(CCCc3ccc4c(n3)NCCC4)n2)c1 (single isomer, unassigned) [Example 80, 3-(5-(2-methoxyethoxy)pyridin-3-yl)-3-(3-(3-(5,6,7,8-tetrahydro-1,8-naphthyridin-2-yl)propyl)-1H-pyrazol-1-yl)propanoic acid]	1.8
COc1ncc(C(CC(=O)O)n2ccc(CCCc3ccc4c(n3)NCCCC4)n2)cn1 (racemic) [Example 103, (±)-3-(2-methoxypyrimidm-5-yl)-3-(3-(3-(6,7,8,9-tetrahydro-5H-pyrido| 2,3-6 |azepin-2-yl)propyl)-1H-pyrazol-1-yl)propanoic acid]	30
COc1cncc(C(CC(=O)O)n2ccc(CCCc3ccc4c(n3)NCCCC4)n2)c1 (racemic) [Example 107, (±)-3-(5-methoxypyridin-3-yl)-3-(3-(3-(6,7,8,9-tetrahydro-5H-pyrido[2,3-b]azepin-2-yl)propyl)-1H-pyrazol-1-yl)propanoic acid]	4.9
O=C(O)CC(c1cc(Cl)cc(Cl)c1)c1cnn(CCCc2ccc3c(n2)NCCC3)c1 (racemic) [Example 26, (±)-3-(3,5-Dichlorophenyl)-3-(1-(3-(5,6,7,8-tetrahydro-1,8-naphthyridin-2-yl)propyl)-1H-pyrazol-4-yl)propanoic acid]	27
COc1ccc(C(CC(=O)O)c2nc(CCCCc3ccc4c(n3)NCCC4)cs2)cn1 (single isomer, unassigned) [Example 13, 3-(6-Methoxypyridin-3-yl)-3-(4-(4-(5,6,7,8-tetrahydro-1,8-naphthyridin-2-yl)butyl)thiazol-2-yl)propanoic acid]	77
Cc1ncc([C@H](CC(=O)O)n2ccc(CCC[C@@H]3CCc4cccnc4N3)n2)cn1 [Example 88, (S)-3-(2-methylpyrimidin-5-yl)-3-(3-(3-((R)-1,2,3,4-tetrahydro-1,8-naphthyridin-2-yl)propyl)-1H-pyrazol-1-yl)propanoic acid]	170
COc1ncc(C(CC(=O)O)n2ncc(CCCc3ccc4c(n3)NCCC4)n2)cn1 (single isomer, unassigned) [Example 177, 3-(2-methoxypyrimidin-5-yl)-3-(4-(3-(5,6,7,8-tetrahydro-1,8-naphthyridin-2-yl)propyl)-2H-1,2,3-triazol-2-yl)propanoic acid]	315
COc1ccc(C(CC(=O)O)c2nc(CCCc3ccc4c(n3)NCCC4)co2)cc1F (stereo not shown) [Example 178, 3-(3-fluoro-4-methoxyphenyl)-3-(4-(3-(5,6,7,8-tetrahydro-1,8-naphthyridin-2-yl)propyl)oxazol-2-yl)propanoic acid]	1.4
COc1ncc(C(CC(=O)O)c2nc(CCCCc3ccc4c(n3)NCCC4)cs2)cn1 (single isomer, unassigned) [Example 143, 3-(2-Methoxypyrimidin-5-yl)-3-(4-(4-(5,6,7,8-tetrahydro-1,8-naphthyridin-2-yl)butyl)thiazol-2-yl)propanoic acid]	88
COc1ccc(C(CC(=O)O)c2cnn(CCCc3ccc4c(n3)NCCC4)c2)cc1F (racemic) [Example 24, (±)-3-(3-Fluoro-4-methoxyphenyl)-3-(1-(3-(5,6,7,8-tetrahydro-1,8-naphthyridin-2-yl)propyl)-1H-pyrazol-4-yl)propanoic acid]	117
COc1ncc([C@H](CC(=O)O)n2ccc(CCC[C@@H]3CCc4cccnc4N3)n2)cn1 [Example 90, (S)-3-(2-methoxypyrimidin-5-yl)-3-(3-(3-((R)-1,2,3,4-tetrahydro-1,8-naphthyridin-2-yl)propyl)-1H-pyrazol-1-yl)propanoic acid]	220
O=C(O)CC(c1cncc(N2CCOCC2)c1)n1nccc1CCCc1ccc2c(n1)NCCC2 (single isomer, unassigned) [Example 94, 3-(5-morpholinopyridin-3-yl)-3-(5-(3-(5,6,7,8-tetrahydro-1,8-naphthyridin-2-yl)propyl)-1H-pyrazol-1-yl)propanoic acid]	19
COc1ncc(C(CC(=O)O)n2ccc(CCCc3ccc4c(n3)NCCC4)n2)cn1 (racemic) [Example 34, (±)-3-(2-Methoxypyrimidin-5-yl)-3-(3-(3-(5,6,7,8-tetrahydro-1,8-naphthyridin-2-yl)propyl)-1H-pyrazol-1-yl)propanoic acid]	10
Cc1ncc(C(CC(=O)O)c2nc(CCCc3ccc4c(n3)NCCC4)cs2)cn1 (single isomer, unassigned) [Example 149, 3-(2-methylpyrimidin-5-yl)-3-(4-(3-(5,6,7,8-tetrahydro-1,8-naphthyridin-2-yl)propyl)thiazol-2-yl)propanoic acid]	7.2
COc1ccc(C(CC(=O)O)c2nc(CCCC3CCc4cccnc4N3)cs2)cn1 (single isomer, unassigned) [Example 154, 3-(6-methoxypyridin-3-yl)-3-(4-(3-(1,2,3,4-tetrahydro-1,8-naphthyridin-2-yl)propyl)thiazol-2-yl)propanoic acid]	210
CN(C)C(=O)c1ccc(C(CC(=O)O)c2nc(CCCc3ccc4c(n3)NCCC4)cs2)cc1F (single isomer, unassigned) [Example 136, 3-(4-(dimethylcarbamoyl)-3-fluorophenyl)-3-(4-(3-(5,6,7,8-tetrahydro-1,8-naphthyridin-2-yl)propyl)thiazol-2-yl)propanoic acid]	12
COc1ccc(C(CC(=O)O)n2ncc(CCCc3ccc4c(n3)NCCC4)n2)cn1 (single isomer, unassigned) [Example 171, 3-(6-methoxypyridin-3-yl)-3-(4-(3-(5,6,7,8-tetrahydro-1,8-naphthyridin-2-yl)propyl)-2H-1,2,3-triazol-2-yl)propanoic acid]	27
O=C(O)C[C@@H](c1ccc(=O)n(Cc2ccccc2)c1)n1ccc(CCCc2ccc3c(n2)NCCC3)n1 [Example 109, (S)-3-(1-benzyl-6-oxo-1,6-dihydropyridin-3-yl)-3-(3-(3-(5,6,7,8-tetrahydro-1,8-naphthyridin-2-yl)propyl)-1H-pyrazol-1-yl)propanoic acid]	4.2
COc1ccc(C(CC(=O)O)n2ncc(CCCc3ccc4c(n3)NCCC4)n2)cn1 (single isomer, unassigned) [Example 170, 3-(6-methoxypyridin-3-yl)-3-(4-(3-(5,6,7,8-tetrahydro-1,8-naphthyridin-2-yl)propyl)-2H-1,2,3-triazol-2-yl)propanoic acid]	620
COc1ccc(C(CC(=O)O)c2nc(CCCc3ccc4c(n3)NCCC4)cs2)cc1OC (single isomer, unassigned) [Example 141, 3-(3,4-dimethoxyphenyl)-3-(4-(3-(5,6,7,8-tetrahydro-1,8-naphthyridin-2-yl)propyl)thiazol-2-yl)propanoic acid]	2.9
COc1cnc(C(CC(=O)O)n2nccc2CCCc2ccc3c(n2)NCCC3)cn1 (racemic) [Example 60, (±)-3-(5-Methoxypyrazin-2-yl)-3-(5-(3-(5,6,7,8-tetrahydro-1,8-naphthyridin-2-yl)propyl)-1H-pyrazol-1-yl)propanoic acid]	500
COc1ccc(C(CC(=O)O)c2nc(CCCCc3ccc4c(n3)NCCC4)cs2)cc1OC (single isomer, unassigned) [Example 124, 3-(3,4-dimethoxyphenyl)-3-(4-(4-(5,6,7,8-tetrahydro-1,8-naphthyridin-2-yl)butyl)thiazol-2-yl)propanoic acid]	2.5
O=C(O)CC(c1ccc2nccnc2c1)c1nc(CCCCc2ccc3c(n2)NCCC3)cs1 (single isomer, unassigned) [Example 119, 3-(quinoxalin-6-yl)-3-(4-(4-(5,6,7,8-tetrahydro-1,8-naphthyridin-2-yl)butyl)thiazol-2-yl)propanoic acid]	99
O=C(O)C[C@@H](c1cnc2c(c1)OCCO2)n1ccc(CCCc2ccc3c(n2)NCCC3)n1 [Example 51, (S)-3-(2,3-Dihydro-[1,4]dioxino[2,3-b]pyridin-7-yl)-3-(3-(3-(5,6,7,8-tetrahydro-1,8-naphthyridin-2-yl)propyl)-1H-pyrazol-1-yl)propanoic acid]	4.9
O=C(O)CC(c1cnc2ccccc2c1)n1ncc(CCCc2ccc3c(n2)NCCC3)n1 (single isomer, unassigned) [Example 175, 3-(quinolin-3-yl)-3-(4-(3-(5,6,7,8-tetrahydro-1,8-naphthyridin-2-yl)propyl)-2H-1,2,3-triazol-2-yl)propanoic acid]	4.3
COc1ccc(C(CC(=O)O)c2ncc(CCCc3ccc4c(n3)NCCC4)s2)cn1 (single isomer, unassigned) [Example 20, 3-(6-Methoxypyridin-3-yl)-3-(5-(3-(5,6,7,8-tetrahydro-1,8-naphthyridin-2-yl)propyl)thiazol-2-yl)propanoic acid]	18
